Test results taken from patent US12459930B2, “Compounds for the inhibition of unregulated cell growth” (GODAVARI BIOREFINERIES LIMITED, priority 2018, dated 2025).

Key:
[1] = tested on: MDAMB231 spheres (cancer stem cells); assay: In vitro sphere-forming assay (cancer stem cells), MDAMB231 in Mammosphere media; conditions: for 3D sphere count of MDAMB231 in Mammosphere media: 2000 cells/well, n = 6 ± S.D; for viability at 0.0025 µM / viability at 0.025 µM / viability at 0.25 µM / viability at 2.5 µM / viability at 25 µM: Homo sapiens, MDA-MB-231, read-out: % Viability of spheres (MDAMB231)
Description: (§3) In Vitro Sphere-forming Assay: Sphere assay measures the ability of cancer stem cells (CSCs) to form spheres in specially designed serum-free medium.
Mammosphere Media Preparation (For 100 mL): 1 g methyl cellulose autoclaved with magnetic stirrer, 100 ml plain media (MEBM) was added and dissolved under magnetic stirring. After complete dissolution FGF—80 μL, EGF—40 μL, Penstrep—1 mL, Heparin—400 μL was added.
(§4) Procedure—The cells were trypsinised and made into single-cell suspension by passing through cell strainers (100 μl and 40 μl, respectively), The cells were diluted at a concentration of 2000 cells/100 μL and suspended in either Mammosphere (for breast cell lines) or Prostosphere (for prostate cell lines). 100 μL of this suspension was added into each well of 96-well suspension plates and incubated at 37 C, 50 CO2 for 24 hrs. Appropriate concentrations of the drugs (2 L) were added into respective wells with 100 μL of stem cell culture medium. Plates were incubated at 37° C., 50% CO2 for 72 hrs. After incubation, 2.5 μL of the respective drug concentration and 50 μL of stem cell culture medium were added into each well and the plates were further incubated at 37° C., 500 CO2 for 72 hrs. 3 μL of the respective drug concentration was added with 50 μL of stem cell culture medium again after incubation and plates were reincubated for 72 hrs at 37° C., 500 CO2. Number of primary spheres formed for each concentration were counted. The spheres were converted to 0 viability of spheres compared to untreated (Growth Control with DMSO, GCD).

[2] = tested on: PC3 spheres (cancer stem cells); assay: In vitro sphere-forming assay (cancer stem cells), PC3 in Prostosphere media; conditions: for 3D sphere count of PC3 in Prostosphere media: 2000 cells/well, n = 6 ± S.D; for viability at 0.0025 µM: read-out: % Viability of spheres (PC3), 0.0025 uM; for viability at 0.0025 µM / viability at 0.025 µM / viability at 0.25 µM / viability at 2.5 µM / viability at 25 µM: GCD = 100% viability; for viability at 0.025 µM: read-out: % Viability of spheres (PC3), 0.025 uM; for viability at 0.25 µM: read-out: % Viability of spheres (PC3), 0.25 uM; for viability at 2.5 µM: read-out: % Viability of spheres (PC3), 2.5 uM; for viability at 25 µM: read-out: % Viability of spheres (PC3), 25 uM
Excerpt: as §3
Materials and Reagents:50×B27 Supplement (Life Technologies, Invitrogen, Catlog No.: 17502-044), Fibroblast Growth Factor (FGF) (Sigma-Aldrich, Catlog No.: F029125), Epidermal Growth Factor (EGF) (Sigma-Aldrich, Catlog No.: E9644), Insulin (Sigma, Catlog No.: 19278), Dulbecco's Modified Eagle Medium/F12 (HiMedia Catlog No.: AL139-6), Dulbecco's Phosphate Buffered Saline (HiMedia Catlog No.: TL1006), Trypan Blue (TC193), Prostate Epithelial Media (LONZA, Catlog No.: CC-3166) MEGM (LONZA, Catlog No.: CC-3051), Heparin (Sigma, Catlog No.: H3393), Penstrep (HiMedia, Catlog No.: A002)
Prostosphere Media Preparation (For 100 mL): 1 g methyl cellulose autoclaved with magnetic stirrer, 100 mL plain media (Prostate Epithelial Basal Medium) was added and dissolved, under magnetic stirring. After complete dissolution, Insulin—40 μL, B27—2 mL, EGF—80 μL, Penstrep—1 ml was added.
as §4

[3] = tested on: PC3 prostate cancer cell line; assay: Soft agar colony-formation assay, PC3; type: cell-based; conditions: 168 h, 1 week, Alamar Blue, read-out: IC50 in micromolar, PC3 (Soft Agar Assay)
Method in brief: (§1)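 Cells were embedded with drug in a top soft-agar layer over an agar base in 96-well format. Colonies grew for 1 week at 37 °C, 5% CO2, with medium feeding at day 3. Alamar Blue was added for 24 h, absorbance read at 630 nm, and log percent viability plotted against log drug concentration.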

[4] = tested on: MDAMB231 breast cancer cell line; assay: In vitro antiproliferative assay (MTT assay), MDAMB231; type: cell-based; conditions: Homo sapiens, MDA-MB-231, 48 h, 48 hrs drug incubation, read-out: IC50 in micromolar, MDAMB231 (MTT assay)
Method in brief: (§2)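 Compound exposure lasted 48 h at 37 °C in 5% CO2, following a 24 h attachment period; DMSO stocks were 0.1 M. Metabolic reduction of MTT (0.5 mg/ml, 4 h), solubilized in DMSO, gave viability, plotted as log % viability versus log drug concentration.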

[5] = tested on: MDAMB231 breast cancer cell line; assay: Soft agar colony-formation assay, MDAMB231; type: cell-based; conditions: Homo sapiens, MDA-MB-231, 168 h, 1 week, Alamar Blue, read-out: IC50 in micromolar, MDAMB231 (Soft Agar Assay)
Method in brief: as §1

[6] = tested on: PC3 prostate cancer cell line; assay: In vitro antiproliferative assay (MTT assay), PC3; type: cell-based; conditions: 48 h, 48 hrs drug incubation, read-out: IC50 in micromolar, PC3 (MTT assay)
Method in brief: as §2

[7] = tested on: DU145 prostate cancer cell line; assay: In vitro antiproliferative assay (MTT assay), DU145; type: cell-based; conditions: Homo sapiens, DU-145, 48 h, 48 hrs drug incubation, read-out: IC50 in micromolar, DU145 (MTT assay)
Method in brief: as §2

| SMILES | 3D sphere count of MDAMB231 in Mammosphere media ([1]; 0.0025 uM) | 3D sphere count of MDAMB231 in Mammosphere media ([1]; 0.025 uM) | 3D sphere count of MDAMB231 in Mammosphere media ([1]; 0.25 uM) | 3D sphere count of MDAMB231 in Mammosphere media ([1]; 2.5 uM) | 3D sphere count of MDAMB231 in Mammosphere media ([1]; 25 uM) | viability at 0.0025 µM [1] | viability at 0.025 µM [1] | viability at 0.25 µM [1] | viability at 2.5 µM [1] | viability at 25 µM [1] | 3D sphere count of PC3 in Prostosphere media ([2]; 0.0025 uM) | 3D sphere count of PC3 in Prostosphere media ([2]; 0.025 uM) | 3D sphere count of PC3 in Prostosphere media ([2]; 0.25 uM) | 3D sphere count of PC3 in Prostosphere media ([2]; 2.5 uM) | 3D sphere count of PC3 in Prostosphere media ([2]; 25 uM) | viability at 0.0025 µM [2] | viability at 0.025 µM [2] | viability at 0.25 µM [2] | viability at 2.5 µM [2] | viability at 25 µM [2] | further results |
| --- | --- | --- | --- | --- | --- | --- | --- | --- | --- | --- | --- | --- | --- | --- | --- | --- | --- | --- | --- | --- | --- |
| O=C1OCc2c1c(-c1ccc3c(c1)OCO3)c1cc3c(cc1c2OCCCCN1CCOCC1)OCO3 [Formula XIII, 4-(4-morpholinobutoxy)-9-(benzo[d][1,3]dioxol-5-yl)-6,7-methylenedioxynaphtho[2,3-c]furan-1(3H)-one] | 49(±3) | 40(±3) | 36(±2) | 30(±4) | 21(±3) | 62% | 50% | 45% | 38% | 26% | 49(±3) | 44(±4) | 35(±3) | 32(±3) | 27(±3) | 62% | 55% | 44% | 40% | 34% | IC50 [3]: 3.84 µM; IC50 [4]: 7.29 µM; IC50 [5]: 3.03 µM; IC50 [6]: 8.83 µM; IC50 [7]: 8.85 µM |
| c1ccc2c(-c3ccc4c(c3)OCO4)ccc(OCCCCNC3CCCCC3)c2c1 [Formula XIV, N-(4-(1-(benzo[d][1,3]dioxol-5-yl)naphthalen-4-yloxy)butyl)cyclohexan amine] | 47(±3) | 43(±3) | 21(±7) | 21(±3) | 7(±3) | 57% | 52% | 26% | 26% | 9% | 56(±3) | 44(±5) | 39(±5) | 24(±3) | 13(±3) | 64% | 51% | 45% | 28% | 15% | IC50 [3]: 0.4 µM; IC50 [4]: 0.308 µM; IC50 [5]: 2.8 µM; IC50 [6]: 0.346 µM; IC50 [7]: 0.532 µM |
| CN1CCN(CCCCOc2ccc(-c3ccc4c(c3)OCO4)c3c2CCCC3)CC1 [Formula XIX, 1-(4-(5-(benzo[d][1,3]dioxol-5-yl)-1,2,3,4-tetrahydronaphthalen-8-yloxy)butyl)-4-methylpiperazine] | 48(±4) | 40(±4) | 34(±3) | 23(±5) | 13(±2) | 61% | 50% | 43% | 29% | 16% | 51(±3) | 40(±3) | 35(±3) | 25(±3) | 13(±2) | 62% | 48% | 42% | 30% | 15% | IC50 [3]: 5.12 µM; IC50 [4]: 2.14 µM; IC50 [5]: 3.41 µM; IC50 [6]: 3.71 µM; IC50 [7]: 2.04 µM |
| c1cc2c(cc1-c1ccc(OCCCCCCNC3CCCCC3)c3c1CCCC3)OCO2 [Formula XVIII, N-(6-(5-(benzo[d][1,3]dioxol-5-yl)-1,2,3,4-tetrahydronaphthalen-8-yloxy)hexyl) cyclohexanamine] | 54(±3) | 49(±4) | 39(±2) | 28(±3) | 19(±1) | 65% | 58% | 45% | 34% | 24% | 50(±4) | 43(±5) | 39(±3) | 27(±4) | 19(±3) | 63% | 54% | 49% | 34% | 24% | IC50 [3]: 2.63 µM; IC50 [4]: 0.398 µM; IC50 [5]: 4.18 µM; IC50 [6]: 0.32 µM; IC50 [7]: 0.348 µM |
| c1cc2c(cc1-c1ccc(OCCCCCCN3CCOCC3)c3c1CCCC3)OCO2 [Formula XX, 4-(6-(5-(benzo[d][1,3]dioxol-5-yl)-1,2,3,4-tetrahydronaphthalen-8-yloxy)hexyl) morpholine] | 48(±4) | 37(±4) | 27(±3) | 14(±4) | 0(±0) | 61% | 47% | 34% | 17% | 0% | 48(±5) | 37(±2) | 33(±4) | 15(±3) | 0(±0) | 58% | 45% | 40% | 18% | 0% | IC50 [3]: 3.31 µM; IC50 [4]: 3.04 µM; IC50 [5]: 3.78 µM; IC50 [6]: 3.34 µM; IC50 [7]: 3.87 µM |
